Among the data in patent US20210395248A1, “INHIBITORS OF HUMAN IMMUNODEFICIENCY VIRUS REPLICATION” (ViiV HEALTHCARE UK (NO.5) LIMITED, priority 2018, published 2021) are EC50 and CC50 values, retold here.

The test system of series [1] is recombinant NL4-3 virus (Renilla luciferase reporter) in MT-2 cells. Kind of series: HIV cell culture assay (antiviral activity, luciferase readout in infected MT-2 cells). To be noted: NL43. Type of series: cell-based. The procedure: HIV cell culture assay—MT-2 cells, 293T cells and the proviral DNA clone of NL4-3 virus were obtained from the NIH AIDS Research and Reference Reagent Program. MT-2 cells were propagated in RPMI 1640 media supplemented with 10% heat inactivated fetal bovine serum (FBS), […]. The 293T cells were propagated in DMEM media supplemented with 10% heat inactivated FBS, […]. A recombinant NL4-3 proviral clone, in which a section of the nef gene was replaced with the Renilla luciferase gene, was used to make the reference virus used in these studies. The recombinant virus was prepared through transfection of the recombinant NL4-3 proviral clone into 293T cells using Transit-293 Transfection Reagent from Mirus Bio LLC (Madison, Wis.). Supernatent was harvested after 2-3 days and the amount of virus present was titered in MT-2 cells using luciferase enzyme activity as a marker by measuring luciferase enzyme activity. Luciferase was quantitated using the EnduRen Live Cell Substrate from Promega (Madison, Wis.). Antiviral activities of compounds toward the recombinant virus were quantified by measuring luciferase activity in MT-2 cells infected for 4-5 days with the recombinant virus in the presence of serial dilutions of the compound.
The 50% effective concentration (EC50) was calculated by using the exponential form of the median effect equation where (Fa)=1/[1+(EC50/drug conc.)m] (Johnson V A, Byington RT. Infectivity Assay. In Techniques in HIV Research, ed. Aldovini A, Walker B D. 71-76. New York: Stockton Press. 1990). The 50% inhibitory concentration (EC50) was calculated by using the exponential form of the median effect equation where percent inhibition=1/[1+(EC50/drug concentration)m], where m is a parameter that reflects the slope of the concentration-response curve.

Series [2] can be described thus: Compound cytotoxicity, XTT-based colorimetric assay. It counts as cell-based. To be noted: human; uninfected MT2 cells, day 4, XTT; read-out: CC50. The method, then: Compound cytotoxicity and the corresponding CC50 values were determined using the same protocol as described in the antiviral assay except that uninfected cells were used. Cytotoxicity was assessed on day 4 in uninfected MT2 cells by using a XTT (2,3-bis [2-Methoxy-4-nitro-5-sulfophenyl]-2H-tetrazolium-5-carboxyanilide inner salt)-based colorimetric assay (Sigma-Aldrich, St Louis, Mo.).

A word on the EC50: it is the concentration needed to bring the measured effect to its halfway point. Broadly, the CC50 is the concentration at which the toxic effect on the cells reaches its halfway point.

For `CC(F)CCNc1ccc2c(=O)n(-c3ccc(Cl)c4c(NS(C)(=O)=O)nn(C)c34)c([C@H](Cc3cc(F)cc(F)c3)NC(=O)Cn3nc(C(F)F)c4c3C(F)(F)[C@@H]3C[C@H]43)nc2n1` (stereo partly drawn) [Example 9, N-((1S)-1-((3P)-3-(4-chloro-1-methyl-3-(methylsulfonamido)-1H-indazol-7-yl)-7-((3-fluorobutyl)amino)-4-oxo-3,4-dihydropyrido[2,3-d]pyrimidin-2-yl)-2-(3,5-difluorophenyl)ethyl)-2-((3bS,4aR)-3-(difluoromethyl)-5,5-difluoro-3b,4,4a,5-tetrahydro-1H-cyclopropa[3,4]cyclopenta[1,2-c]pyrazol-1-yl)acetamide], the EC50 in series [1] is 0.046 nM. In series [2], the CC50 at 4 days was above 100 nM.

For the molecule `Cn1nc(NS(C)(=O)=O)c2c(Cl)ccc(-n3c([C@H](Cc4cc(F)cc(F)c4)NC(=O)Cn4nc(C(F)F)c5c4C(F)(F)[C@@H]4C[C@H]54)nc4nc(N5CC(C)(C)OC(C)(C)C5)ccc4c3=O)c21` (atropisomer, axis not shown; (P)) [Example 26, N—((S)-1-((3P)-3-(4-chloro-1-methyl-3-(methylsulfonamido)-1H-indazol-7-yl)-4-oxo-7-(2,2,6,6-tetramethylmorpholino)-3,4-dihydropyrido[2,3-d]pyrimidin-2-yl)-2-(3,5-difluorophenyl)ethyl)-2-((3bS,4aR)-3-(difluoromethyl)-5,5-difluoro-3b,4,4a,5-tetrahydro-1H-cyclopropa[3,4]cyclopenta[1,2-c]pyrazol-1-yl)acetamide], the EC50 in series [1] was 0.023 nM. The CC50 at 4 days in series [2] was above 100 nM.

In the case of `Cn1nc(NS(C)(=O)=O)c2c(Cl)ccc(-n3c([C@H](Cc4cc(F)cc(F)c4)NC(=O)Cn4nc(C(F)F)c5c4C(F)(F)[C@@H]4C[C@H]54)nc4nc(NCCC(C)(F)F)ccc4c3=O)c21` (atropisomer, axis not shown; (P)) [Example 25, N—((S)-1-((3P)-3-(4-chloro-1-methyl-3-(methylsulfonamido)-1H-indazol-7-yl)-7-((3,3-difluorobutyl)amino)-4-oxo-3,4-dihydropyrido[2,3-d]pyrimidin-2-yl)-2-(3,5-difluorophenyl)ethyl)-2-((3bS,4aR)-3-(difluoromethyl)-5,5-difluoro-3b,4,4a,5-tetrahydro-1H-cyclopropa[3,4]cyclopenta[1,2-c]pyrazol-1-yl)acetamide], in series [1], the EC50 amounted to 0.037 nM. In series [2], the CC50 at 4 days was above 100 nM.

Regarding `Cn1nc(NS(C)(=O)=O)c2c(Cl)ccc(-n3c([C@H](Cc4cc(F)cc(F)c4)NC(=O)Cn4nc(C(F)F)c5c4C(F)(F)[C@@H]4C[C@H]54)nc4nc(N5CCO[C@@H](C(F)(F)F)C5)ccc4c3=O)c21` (atropisomer, axis not shown; (P)) [Example 12, N—((S)-1-((3P)-3-(4-chloro-1-methyl-3-(methylsulfonamido)-1H-indazol-7-yl)-4-oxo-7-((R)-2-(trifluoromethyl)morpholino)-3,4-dihydropyrido[2,3-d]pyrimidin-2-yl)-2-(3,5-difluorophenyl)ethyl)-2-((3bS,4aR)-3-(difluoromethyl)-5,5-difluoro-3b,4,4a,5-tetrahydro-1H-cyclopropa[3,4]cyclopenta[1,2-c]pyrazol-1-yl)acetamide], in series [1], the EC50 stood at 0.02 nM. Further, the CC50 at 4 days in series [2] is above 100 nM.

With `Cn1nc(NS(C)(=O)=O)c2c(Cl)ccc(-n3c([C@H](Cc4cc(F)cc(F)c4)NC(=O)Cn4nc(C(F)F)c5c4C(F)(F)[C@@H]4C[C@H]54)nc4nc(N5CCOC(C)(C)C5)ccc4c3=O)c21` (atropisomer, axis not shown; (P)) [Example 29, N—((S)-1-((3P)-3-(4-chloro-1-methyl-3-(methylsulfonamido)-1H-indazol-7-yl)-7-(2,2-dimethylmorpholino)-4-oxo-3,4-dihydropyrido[2,3-d]pyrimidin-2-yl)-2-(3,5-difluorophenyl)ethyl)-2-((3bS,4aR)-3-(difluoromethyl)-5,5-difluoro-3b,4,4a,5-tetrahydro-1H-cyclopropa[3,4]cyclopenta[1,2-c]pyrazol-1-yl)acetamide], the EC50 in series [1] was 0.035 nM. In addition, the CC50 at 4 days in series [2] was above 100 nM.

For `Cn1nc(NS(C)(=O)=O)c2c(Cl)ccc(-n3c([C@H](Cc4cc(F)cc(F)c4)NC(=O)Cn4nc(C(F)F)c5c4C(F)(F)[C@@H]4C[C@H]54)nc4nc(N(CCC(F)(F)F)C5CCC5)ccc4c3=O)c21` (atropisomer, axis not shown; (P)) [Example 13, N—((S)-1-((3P)-3-(4-chloro-1-methyl-3-(methylsulfonamido)-1H-indazol-7-yl)-7-(cyclobutyl(3,3,3-trifluoropropyl)amino)-4-oxo-3,4-dihydropyrido[2,3-d]pyrimidin-2-yl)-2-(3,5-difluorophenyl)ethyl)-2-((3bS,4aR)-3-(difluoromethyl)-5,5-difluoro-3b,4,4a,5-tetrahydro-1H-cyclopropa[3,4]cyclopenta[1,2-c]pyrazol-1-yl)acetamide], the EC50 in series [1] was 0.068 nM. Moreover, the CC50 at 4 days in series [2] was above 100 nM.

With `Cn1nc(NS(C)(=O)=O)c2c(Cl)ccc(-n3c([C@H](Cc4cc(F)cc(F)c4)NC(=O)Cn4nc(C(F)F)c5c4C(F)(F)[C@@H]4C[C@H]54)nc4nc(NCCCC(F)(F)F)ccc4c3=O)c21` (atropisomer, axis not shown; (P)) [Example 31, N—((S)-1-((3P)-3-(4-chloro-1-methyl-3-(methylsulfonamido)-1H-indazol-7-yl)-4-oxo-7-((4,4,4-trifluorobutyl)amino)-3,4-dihydropyrido[2,3-d]pyrimidin-2-yl)-2-(3,5-difluorophenyl)ethyl)-2-((3bS,4aR)-3-(difluoromethyl)-5,5-difluoro-3b,4,4a,5-tetrahydro-1H-cyclopropa[3,4]cyclopenta[1,2-c]pyrazol-1-yl)acetamide], the concentration for a half-maximal effect (EC50) in series [1] is 0.11 nM. Besides, the CC50 at 4 days in series [2] was above 100 nM.

`C[C@@H]1CN(c2ccc3c(=O)n(-c4ccc(Cl)c5c(NS(C)(=O)=O)nn(C)c45)c([C@H](Cc4cc(F)cc(F)c4)NC(=O)Cc4ccn(C5CC5)n4)nc3n2)C[C@H](C)O1` (atropisomer, axis not shown; (P)) [Example 15, N—((S)-1-((3P)-3-(4-chloro-1-methyl-3-(methylsulfonamido)-1H-indazol-7-yl)-7-((2S,6R)-2,6-dimethylmorpholino)-4-oxo-3,4-dihydropyrido[2,3-d]pyrimidin-2-yl)-2-(3,5-difluorophenyl)ethyl)-2-(1-cyclopropyl-1H-pyrazol-3-yl)acetamide]: in series [1], the EC50 was found to be 0.11 nM. In series [2], the CC50 at 4 days was above 100 nM.

For `C[C@@H]1CN(c2ccc3c(=O)n(-c4ccc(Cl)c5c(NS(=O)(=O)C6CC6)nn(CC(F)F)c45)c([C@H](Cc4cc(F)cc(F)c4)NC(=O)Cn4nc(C(F)(F)F)c5c4C(F)(F)[C@@H]4C[C@H]54)nc3n2)C[C@H](C)O1` (atropisomer, axis not shown; (aR)) [Example 6, N—((S)-1-(3-(4-chloro-3-(cyclopropanesulfonamido)-1-(2,2-difluoroethyl)-1H-indazol-7-yl)-7-((2S,6R)-2,6-dimethylmorpholino)-4-oxo-3,4-dihydropyrido[2,3-d]pyrimidin-2-yl)-2-(3,5-difluorophenyl)ethyl)-2-((3bS,4aR)-5,5-difluoro-3-(trifluoromethyl)-3b,4,4a,5-tetrahydro-1H-cyclopropa[3,4]cyclopenta[1,2-c]pyrazol-1-yl)acetamide], in series [1], the EC50 came out at 0.04 nM. Besides, the CC50 at 4 days in series [2] is above 500 nM.

For the molecule `C[C@@H]1CN(c2ccc3c(=O)n(-c4ccc(Cl)c5c(NS(C)(=O)=O)nn(C)c45)c([C@H](Cc4cc(F)cc(F)c4)NC(=O)Cn4nc(C(F)(F)F)c5c4C(F)(F)[C@@H]4C[C@H]54)nc3n2)C[C@H](C)O1` (atropisomer, axis not shown; (aR)) [Example 2, N—((S)-1-(3-(4-chloro-1-methyl-3-(methylsulfonamido)-1H-indazol-7-yl)-7-((2S,6R)-2,6-dimethylmorpholino)-4-oxo-3,4-dihydropyrido[2,3-d]pyrimidin-2-yl)-2-(3,5-difluorophenyl)ethyl)-2-((3bS,4aR)-5,5-difluoro-3-(trifluoromethyl)-3b,4,4a,5-tetrahydro-1H-cyclopropa[3,4]cyclopenta[1,2-c]pyrazol-1-yl)acetamide], the EC50 in series [1] came out at 0.036 nM. Further, the CC50 at 4 days in series [2] is above 500 nM.
